Reference: US9573954B2, “Pyrazolopyrimidine compounds” (University Health Network, priority 2012, dated 2017)

Key:
[1] = tested on: breast cancer cells (MDA-MB-231); assay: Cancer cell line growth inhibition, Sulforhodamine B assay, MDA-MB-231; type: cell-based; conditions: Homo sapiens, 120 h; Table 2; MDA-MB-231, 5 days, SRB; read-out: Cancer Cell Line GI50 Range MDA-MB-231
Procedure: (§1) Breast cancer cells (MDA-MB-231 and MDA-MB-468), colon cancer cells (HCT116) and ovarian cancer cells (PA-1 and OVCAR-3) were seeded (1000 to 4000 in 80 μl per well depending on the cell growth rate) into 96 well plates 24 hours before compound overlay. Compounds were prepared as 10 mM stock solutions in 100% DMSO which were diluted with DMEM (Dulbecco's Modified Eagle's Medium) cell growth Medium (Invitrogen, Burlington, ON, Canada) containing 10% FBS (Fetal Bovine Serum) to concentrations ranging from 50 nM to 250 μM. Aliquots (20 μl) from each concentration were overlaid to 80 μl of the pre-seeded cells in the 96 well plates to make final concentrations of 10 nM to 50 μM. The cells were cultured for 5 days before the Sulforhodamine B assay (SRB) was performed to determine the compound's cell growth inhibition activity.
(§2) Sulforhodamine B (purchased from Sigma, Oakville, ON, Canada) is a water-soluble dye that binds to the basic amino acids of the cellular proteins. Thus, colorimetric measurement of the bound dye provides an estimate of the total protein mass that is related to the cell number. the cells are fixed in situ by gently aspirating off the culture media and adding 50 μl ice cold 10% Trichloroacetic Acid (TCA) per well and incubate at 4° C. for 30-60 min, The plates are washed with H2O five times and allowed to air dry for 5 min. Addition of 50 μl 0.4% (w/v) SRB solution in 1% (v/v) acetic acid to each well and incubation for 30 min at RT completes the staining reaction. Following staining, plates are washed four times with 1% acetic acid to remove unbound dye and then allowed to air dry for 5 min. The stain is solubilized with 100 μl of 10 mM Tris pH 10.5 per well. Absorbance is read at 570 nm.
(§3) The percentage (%) of relative growth inhibition was calculated by comparing to DMSO treated only cells (100%). GI50's were determined for compounds with cytotoxic activity. The GI50 was calculated using GraphPad PRISM software (GraphPad Software, Inc., San Diego, Calif., USA).
(§4) In Table 2 below, GI50 value ranges for compound examples against breast cancer cell lines (MDA-MB-231), colon cancer cell lines (HCT116) and ovarian cancer cell lines (PA-1) are given.

[2] = tested on: colon cancer cells (HCT116); assay: Cancer cell line growth inhibition, Sulforhodamine B assay, HCT116; type: cell-based; conditions: Homo sapiens, HCT-116, 120 h, Table 2; HCT116, 5 days, SRB; read-out: Cancer Cell Line GI50 Range HCT116
In short: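 HCT116 cells, 1000–4000 per well, seeded 24 h ahead, then treated 5 days with compound at 10 nM to 50 μM final in DMEM with 10% FBS. Growth measured by sulforhodamine B staining after TCA fixation, A570; GI50 from inhibition relative to DMSO-only cells.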

[3] = tested on: Ovarian 2393A tumor initiating cells; assay: Tumor-initiating cell growth inhibition, Alamar Blue assay, ovarian TICs; type: cell-based; conditions: 144 h; Table 2; ovarian TICs, 6 days, Alamar Blue; read-out: Tumor Initiating Cell GI50 Range Ovarian 2393A
In short: (§5)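 Colon TICs (4,000/well, non-TC plates) and ovarian TICs (1,000/well, TC plates) kept in serum-free DMEM:F12 with B-27, heparin, bFGF and EGF. Compound added after 24 h at 0.1% DMSO, then 9 days (colon) or 6 days (ovarian) at 37° C. GI50 from Alamar Blue fluorescence (ex 544/em 590) after 4 h.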

[4] = tested on: Colon 12 tumor initiating cells; assay: Tumor-initiating cell growth inhibition, Alamar Blue assay, colon TICs; type: cell-based; conditions: 216 h; Table 2; colon TICs, 9 days, Alamar Blue; read-out: Tumor Initiating Cell GI50 Range Colon 12
In short: as §5

human TTK = target: T1, human TTK (Homo sapiens, UniProt P33981); assay: TTK inhibition assay (indirect ELISA); type: biochemical; conditions: Table 2; 16 μM ATP (asterisk); read-out: TTK IC50 Range
T1 construct: Active TTK was purchased from Invitrogen as an amino terminal GST fusion of full length human TTK; purchased Invitrogen
T1 sequence (P33981 1-857): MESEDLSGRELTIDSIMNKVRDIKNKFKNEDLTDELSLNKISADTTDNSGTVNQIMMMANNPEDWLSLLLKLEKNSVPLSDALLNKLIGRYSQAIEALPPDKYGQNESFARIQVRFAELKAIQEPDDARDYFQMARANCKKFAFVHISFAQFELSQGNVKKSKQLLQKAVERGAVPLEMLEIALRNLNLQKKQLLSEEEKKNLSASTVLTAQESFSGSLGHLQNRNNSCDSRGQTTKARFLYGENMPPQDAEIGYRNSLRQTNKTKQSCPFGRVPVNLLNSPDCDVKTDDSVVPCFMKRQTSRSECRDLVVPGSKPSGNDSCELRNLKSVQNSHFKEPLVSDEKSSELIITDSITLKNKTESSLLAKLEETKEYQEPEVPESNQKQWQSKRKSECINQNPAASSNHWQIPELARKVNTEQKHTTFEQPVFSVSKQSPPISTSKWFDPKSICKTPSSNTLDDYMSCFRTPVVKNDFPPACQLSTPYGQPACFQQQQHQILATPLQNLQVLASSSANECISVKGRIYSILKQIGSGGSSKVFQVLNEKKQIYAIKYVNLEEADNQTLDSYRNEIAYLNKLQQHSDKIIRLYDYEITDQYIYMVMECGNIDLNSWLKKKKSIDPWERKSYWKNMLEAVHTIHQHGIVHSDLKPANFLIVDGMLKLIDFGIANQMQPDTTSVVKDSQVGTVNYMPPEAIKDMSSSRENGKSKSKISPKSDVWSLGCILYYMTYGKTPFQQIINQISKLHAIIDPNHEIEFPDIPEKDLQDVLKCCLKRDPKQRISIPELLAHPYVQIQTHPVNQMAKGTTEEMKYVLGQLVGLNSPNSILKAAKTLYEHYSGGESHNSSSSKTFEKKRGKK
In short: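 Activity detected by indirect ELISA after compounds sat with full-length GST-TTK for 5 min prior to starting the reaction with ATP. IC50 came from a four-parameter logistic curve of % inhibition, calculated against background and uninhibited control wells.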

[5] = tested on: ovarian cancer cells (PA-1); assay: Cancer cell line growth inhibition, Sulforhodamine B assay, PA-1; type: cell-based; conditions: 120 h; Table 2; PA-1, 5 days, SRB; read-out: Cancer Cell Line GI50 Range PA-1
Procedure: as §1, §2, §3
In Table 1 below, GI50 value ranges for compound examples against breast cancer cell lines (MDA-MB-468), colon cancer cell lines (HCT116) and ovarian cancer cell lines (PA-1) are given.
as §4

## Cc1cc(-c2cnn3c(NCCC4CCOCC4)cc(Oc4ccccc4)nc23)ccc1C(=O)NC1CC1 [Example B20, N-cyclopropyl-2-methyl-4-(5-phenoxy-7-((2-(tetrahydro-2H-pyran-4-yl)ethyl)amino)pyrazolo[1,5-a]pyrimidin-3-yl)benzamide]
[1]
  GI50: ≤ 100 nM
[2]
  GI50: ≤ 100 nM
[3]
  GI50: ≤ 100 nM
[4]
  GI50: ≤ 100 nM
Human TTK
  IC50: < 100 nM
[5]
  GI50: ≤ 100 nM

## COCCNc1cc(Oc2ccccc2)nc2c(-c3ccc(C(=O)NC4CC4)c(C)c3)cnn12 [Example B13, N-cyclopropyl-4-(7-((2-methoxyethyl)amino)-5-phenoxypyrazolo[1,5-a]pyrimidin-3-yl)-2-methylbenzamide]
[1]
  GI50: ≤ 100 nM
[2]
  GI50: ≤ 100 nM
[3]
  GI50: 100 to 500 nM
[4]
  GI50: ≤ 100 nM
Human TTK
  IC50: < 100 nM
[5]
  GI50: ≤ 100 nM

## Cc1cc(-c2cnn3c(NCCN4CCOCC4)cc(Oc4ccccc4)nc23)ccc1C(=O)NC1CC1 [Example B5, N-cyclopropyl-2-methyl-4-(7-((2-morpholinoethyl)amino)-5-phenoxypyrazolo[1,5-a]pyrimidin-3-yl)benzamide]
[1]
  GI50: ≤ 100 nM
[2]
  GI50: ≤ 100 nM
[3]
  GI50: ≤ 100 nM
[4]
  GI50: ≤ 100 nM
Human TTK
  IC50: < 100 nM
[5]
  GI50: ≤ 100 nM

## Cc1cc(-c2cnn3c(NCC4CCOCC4)cc(Oc4cccnc4)nc23)ccc1C(=O)NC1CC1 [Example B9, N-cyclopropyl-2-methyl-4-(5-(pyridin-3-yloxy)-7-(((tetrahydro-2H-pyran-4-yl)methyl)amino)pyrazolo[1,5-a]pyrimidin-3-yl)benzamide]
[1]
  GI50: ≤ 100 nM
[2]
  GI50: ≤ 100 nM
[3]
  GI50: ≤ 100 nM
[4]
  GI50: ≤ 100 nM
Human TTK
  IC50: < 100 nM
[5]
  GI50: ≤ 100 nM

## Cc1cc(-c2cnn3c(NCC4CCOCC4)cc(Oc4cccc(F)c4)nc23)ccc1C(=O)NC1CC1 [Example B12, N-cyclopropyl-4-(5-(3-fluorophenoxy)-7-(((tetrahydro-2H-pyran-4-yl)methyl)amino)pyrazolo[1,5-a]pyrimidin-3-yl)-2-methylbenzamide]
[1]
  GI50: ≤ 100 nM
[2]
  GI50: ≤ 100 nM
[3]
  GI50: ≤ 100 nM
[4]
  GI50: ≤ 100 nM
Human TTK
  IC50: < 100 nM
[5]
  GI50: ≤ 100 nM

## COCCNc1cc(Oc2ccccc2)nc2c(-c3ccc(C(=O)NC4CC4)cc3)cnn12 [Example B2, N-cyclopropyl-4-(7-((2-methoxyethyl)amino)-5-phenoxypyrazolo[1,5-a]pyrimidin-3-yl)benzamide]
[1]
  GI50: > 500 nM
[2]
  GI50: > 500 nM
[3]
  GI50: > 500 nM
[4]
  GI50: 100 to 500 nM
Human TTK
  IC50: < 100 nM
[5]
  GI50: 100 to 500 nM

## O=C(NC1CC1)c1ccc(-c2cnn3c(NCC4CCOCC4)cc(Oc4ccccc4)nc23)cc1F [Example B8, N-cyclopropyl-2-fluoro-4-(5-phenoxy-7-(((tetrahydro-2H-pyran-4-yl)methyl)amino)pyrazolo[1,5-a]pyrimidin-3-yl)benzamide]
[1]
  GI50: 100 to 500 nM
[2]
  GI50: 100 to 500 nM
[3]
  GI50: 100 to 500 nM
[4]
  GI50: 100 to 500 nM
Human TTK
  IC50: < 100 nM
[5]
  GI50: ≤ 100 nM

## CCC(CO)Nc1cc(NCC2CCOCC2)n2ncc(-c3ccc(C(=O)NC4CC4)c(C)c3)c2n1 (stereo in doubt) [Example B29, (R)-N-cyclopropyl-4-(5-((1-hydroxybutan-2-yl)amino)-7-(((tetrahydro-2H-pyran-4-yl)methyl)amino)pyrazolo[1,5-a]pyrimidin-3-yl)-2-methylbenzamide]
[1]
  GI50: > 500 nM
[2]
  GI50: 100 to 500 nM
[3]
  GI50: > 500 nM
[4]
  GI50: 100 to 500 nM
Human TTK
  IC50: < 100 nM
[5]
  GI50: 100 to 500 nM

## Cc1cc(-c2cnn3c(NCC4CCOCC4)cc(Oc4ccccc4)nc23)ccc1C(=O)NC1CC1 [Example B1]
[1]
  GI50: ≤ 100 nM
[2]
  GI50: ≤ 100 nM
[3]
  GI50: ≤ 100 nM
[4]
  GI50: ≤ 100 nM
Human TTK
  IC50: < 100 nM
[5]
  GI50: ≤ 100 nM

## Cc1cc(-c2cnn3c(NCC4CCOCC4)cc(NC4CCCC4)nc23)ccc1C(=O)NC1CC1 [Example B14, 4-(5-(cyclopentylamino)-7-(((tetrahydro-2H-pyran-4-yl)methyl)amino)pyrazolo[1,5-a]pyrimidin-3-yl)-N-cyclopropyl-2-methylbenzamide]
[1]
  GI50: ≤ 100 nM
[2]
  GI50: ≤ 100 nM
[3]
  GI50: ≤ 100 nM
[4]
  GI50: ≤ 100 nM
Human TTK
  IC50: < 100 nM
[5]
  GI50: ≤ 100 nM

## O=C(NC1CC1)c1ccc(-c2cnn3c(NCC4CCOCC4)cc(Oc4ccccc4)nc23)cc1 [Example B3, N-cyclopropyl-4-(5-phenoxy-7-(((tetrahydro-2H-pyran-4-yl)methyl)amino)pyrazolo[1,5-a]pyrimidin-3-yl)benzamide]
[1]
  GI50: 100 to 500 nM
[2]
  GI50: ≤ 100 nM
[3]
  GI50: 100 to 500 nM
[4]
  GI50: 100 to 500 nM
Human TTK
  IC50: < 100 nM
[5]
  GI50: ≤ 100 nM

## Cc1cc(-c2cnn3c(NCC4CCOCC4)cc(NCC(C)(C)O)nc23)ccc1C(=O)NC1CC1 [Example B10, N-cyclopropyl-4-(5-((2-hydroxy-2-methylpropyl)amino)-7-(((tetrahydro-2H-pyran-4-yl)methyl)amino)pyrazolo[1,5-a]pyrimidin-3-yl)-2-methylbenzamide]
[1]
  GI50: > 500 nM
[2]
  GI50: 100 to 500 nM
Human TTK
  IC50: < 100 nM
[5]
  GI50: 100 to 500 nM

## Cc1cc(-c2cnn3c(NCC(C)C)cc(NC4CCOCC4)nc23)ccc1C(=O)NC1CC1 [Example B26, N-cyclopropyl-4-(7-(isobutylamino)-5-((tetrahydro-2H-pyran-4-yl)amino)pyrazolo[1,5-a]pyrimidin-3-yl)-2-methylbenzamide]
[1]
  GI50: 100 to 500 nM
[2]
  GI50: ≤ 100 nM
Human TTK
  IC50: < 100 nM
[5]
  GI50: ≤ 100 nM

## Cc1cc(-c2cnn3c(NCC4CCOCC4)cc(OC4CCCC4)nc23)ccc1C(=O)NC1CC1 [Example B21, 4-(5-(cyclopentyloxy)-7-(((tetrahydro-2H-pyran-4-yl)methyl)amino)pyrazolo[1,5-a]pyrimidin-3-yl)-N-cyclopropyl-2-methylbenzamide]
[1]
  GI50: 100 to 500 nM
[2]
  GI50: ≤ 100 nM
Human TTK
  IC50: < 100 nM
[5]
  GI50: ≤ 100 nM
